From patent publication US20100272736A1, “COMBINATION ANTIBIOTIC AND ANTIBODY THERAPY FOR THE TREATMENT OF PSEUDOMONAS AERUGINOSA INFECTION” (priority 2009, published 2010)

What was measured:
P. aeruginosa PA103 [1] = test: Acute murine airway infection model: survival and body temperature (Mab166 iv, antibiotic ip); assay type: in vivo, mice; settings: for survival rate over a 7 day period: antibiotic alone ip Q8H (ciprofloxacin 100 mg/kg, tobramycin 3.3 mg/kg, ceftazidime 1000 mg/kg); for survival (piperacillin experiment): piperacillin/tazobactam 1000 mg/kg ip Q8H, Mab166 300 μg iv, FIG. 7
Protocol: Bacterial administration and lung injury measurement in mice. Following anesthesia with avertin (250 mg kg^−1; ip), mice were inoculated with a volume of fifty μl of bacterial working stock (1.5×10^6 CFU), which was instilled into the left lung through the trachea using a 27G gavages needle. Mice were allowed to recover for 15 minutes prior to being returned to their cages. […] Rectal temperature was recorded hourly for the initial 12 hours post bacterial instillation followed by daily measurements for 7 days. Survival time was recorded for each mouse.
Antibiotics and PcrV antibody administration. […] All antibiotics were administrated intraperitoneally 1 hour after P. aeruginosa instillation. Four doses of each antibiotic were tested in mice to determine the dose needed to produce sub-optimal survival rates (40-60%) in mice infected with 1.5×10^6 PA103 CFU, which is a 3× lethal amount of bacteria.
Statistics. Kaplan-Meier plots were generated for survival analysis and ANOVA was used to compare lung injury score, bacterial CFU's and MPO activity in various treatment groups at specific time points; P 0.05 was considered significant.
(§1) The acutely infectious strain P. aeruginosa PA103 was used for this study.
Anti-PcrV antibody was intravenously injected one hour before P. aeruginosa instillation. Mice were then anesthetized with avertin (250 mg/kg), prior to instillation of 1.5×10^6 CFU PA103 into the trachea. Intraperitoneal piperacillin (1000 mg/kg, Q8H) injection commenced one hour after P. aeruginosa instillation and repeated until mice expired. Piperacillin was administered in combination with tazobactam (a pencillinase inhibitor), which is the standard practice for administration. In this example, “piperacillin” refers to piperacillin in combination with tazobactam.

PA103 = PA103 antibiotic sensitivity (MicroScan Neg Combo plates, CLSI guidelines); assay type: cell-based, P. aeruginosa; settings: conventional antibiotic resistance testing, CLSI interpretation
Description: PA103 antibiotic sensitivity Dade Behring MicroScan Neg Combo plates were used to determine the antibiotic sensitivity of PA103 by conventional antibiotic sensitivity testing according to the manufacturers instructions.
as §1

P. aeruginosa PA103 [2] = test: Bacterial enumeration (CFU) in lungs, blood and spleen; assay type: in vivo, mice
Protocol: Bacterial enumeration. Lungs were removed aseptically from the thoracic cavity, placed in 1 ml of sterile PBS and homogenized. Spleens were aseptically removed and homogenized in 1 ml of PBS and blood was drawn from right ventricle puncture. All samples were serially diluted in sterile PBS and plated on P. aeruginosa isolation agar prior to overnight incubation at 37° C. Plates with cell counts between 30 and 300 were enumerated and mean CFU ml^−1 of triplicate counts was calculated for each sample.
These samples were analyzed for bacterial CFU's as described in materials and methods.

| Structure (SMILES) | survival rate over a 7 day period (P. aeruginosa PA103 [1]) [%] | antibiotic susceptibility of PA103 (PA103) | survival (piperacillin experiment) (P. aeruginosa PA103 [1]) | survival (piperacillin experiment) (P. aeruginosa PA103 [1]; listed as Piperacillin) | P. aeruginosa CFU's in the blood (P. aeruginosa PA103 [2]; 8 and 24 hours post infection) | total CFU's in the lungs (P. aeruginosa PA103 [2]; 8 and 24 hours post infection, compared to control mice) | bacterial CFU's in the spleen (P. aeruginosa PA103 [2]; 24 hours vs 8 hours post infection) |
| --- | --- | --- | --- | --- | --- | --- | --- |
| CC(C)(O/N=C(\C(=O)N[C@@H]1C(=O)N2C(C(=O)[O-])=C(C[n+]3ccccc3)CS[C@H]12)c1csc(N)n1)C(=O)O [ceftazidime] | 40 | susceptible | – | – | – | – | – |
| CCN1CCN(C(=O)N[C@@H](C(=O)N[C@@H]2C(=O)N3[C@@H]2SC(C)(C)[C@@H]3C(=O)O)c2ccccc2)C(=O)C1=O [piperacillin] | – | – | increased survival minimally | slight increase in animal survival | – | – | – |
| NC[C@H]1O[C@H](O[C@H]2[C@H](O)[C@@H](O[C@H]3O[C@H](CO)[C@@H](O)[C@H](N)[C@H]3O)[C@H](N)C[C@@H]2N)[C@H](N)C[C@@H]1O [tobramycin] | 60 | susceptible | – | – | significant (P=0.01, P=0.0046 respectively) increases | significantly lower | increased significantly |
